Our source for the IC50 values is US9115127B2 (AMGEN INC., priority 2010, dated 2015).

Structures can show the parent of a compound that is named as a salt. A value given as a limit tells only on which side of the number the result lay.

For the experiment, the target named is T1, wild-type human ALK (cytoplasmic domain, amino acids 1058-1620, N-terminal GST fusion) (Homo sapiens, UniProt Q9UM73).
T1 construct: The cytoplasmic domain (amino acids 1058-1620) of wild-type human ALK; GST (N); made in house; host or cells: SF9 insect cells
T1 sequence (Q9UM73 1058-1620): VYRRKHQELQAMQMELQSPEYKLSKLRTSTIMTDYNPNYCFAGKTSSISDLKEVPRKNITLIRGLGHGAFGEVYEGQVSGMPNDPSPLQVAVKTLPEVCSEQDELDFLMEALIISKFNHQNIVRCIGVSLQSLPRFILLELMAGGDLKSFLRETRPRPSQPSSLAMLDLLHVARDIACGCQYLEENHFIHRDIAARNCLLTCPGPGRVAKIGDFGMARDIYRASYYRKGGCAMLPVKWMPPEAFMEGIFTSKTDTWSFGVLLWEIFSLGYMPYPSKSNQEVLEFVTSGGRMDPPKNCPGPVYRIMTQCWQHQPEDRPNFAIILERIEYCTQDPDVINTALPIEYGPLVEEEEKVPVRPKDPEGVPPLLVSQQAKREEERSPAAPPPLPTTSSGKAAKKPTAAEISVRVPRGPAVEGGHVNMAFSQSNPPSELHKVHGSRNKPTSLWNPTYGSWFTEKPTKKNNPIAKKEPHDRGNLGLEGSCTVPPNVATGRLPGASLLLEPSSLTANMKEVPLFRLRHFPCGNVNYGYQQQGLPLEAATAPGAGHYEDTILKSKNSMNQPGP
Put plainly: ALK Inhibition in Enzyme Assay (Lance TR-FRET kinase assay). The experiment is classed as biochemical. How it is done: ALK Inhibition in Enzyme Assay
Kinase activity of the purified protein was assessed using a Lance® TR-FRET assay. […] The reaction was allowed to proceed for 90 minutes at room temperature and was then terminated with 20 mM EDTA in 50 mM Tris (pH 7.5), 100 mM NaCl, 0.05% BSA, and 0.1% Tween-20. Phosphorylation of the peptide substrate was detected using the Lance® detection reagents streptavidin-allophycocyanin (SA-APC) and Eu-W1024 anti-phosphotyrosine antibody (PT66) from Perkin Elmer Life Sciences (Waltham, Mass.). The plates were read on a RUBY star plate reader (BMG LABTECH, Cary, N.C.) with an excitation wavelength of 320 nm.
One may read the IC50 as the concentration that gives 50% inhibition. Read a low IC50 as greater potency in that assay. For the molecule `CC(C)(O)C1CCN(CCOc2cc3c(cn2)[nH]/c(=N\C(=O)c2cccc(F)c2)n3[C@H]2CC[C@@H](C(=O)N3C[C@@H]4C[C@H]3CN4)CC2)CC1` (relative stereo) [Example 84, (E)-N-(1-(cis-4-(cis-2,5-Diazabicyclo[2.2.1]heptane-2-carbonyl)cyclohexyl)-6-(2-(4-(2-hydroxypropan-2-yl)piperidin-1-yl)ethoxy)-1H-imidazo[4,5-c]pyridin-2(3H)-ylidene)-3-fluorobenzamide], the IC50 was in the range of 100 to 1000 nM.
`COC(=O)[C@H]1CC[C@@H](n2/c(=N/C(=O)c3ccccc3)[nH]c3cnccc32)CC1` [Example 1, cis-Methyl 4-((E)-2-(benzoylimino)-2,3-dihydro-1H-imidazo[4,5-c]pyridin-1-yl)cyclohexanecarboxylate] came in with an IC50 of 100 to 1000 nM.
The result for `COC(=O)[C@H]1CC[C@@H](n2/c(=N/C(=O)c3ccc(F)cc3)[nH]c3ccc(CO)cc32)CC1` [Example 2] reads less than 50 nM; that for `COC(=O)[C@H]1CC[C@@H](n2c(NC(=O)c3ccc(F)cc3)nc3ccc(CN4CCCCC4)cc32)CC1` [Example 3, cis-Methyl 4-(2-(4-fluorobenzoylimino)-6-(piperidin-1-ylmethyl)-2,3-dihydro-1H-benzo[d]imidazol-1-yl)cyclohexanecarboxylate], less than 50 nM; that for `COC(=O)[C@H]1CC[C@@H](n2c(NC(=O)c3ccccc3)nc3ccc(CO)cc32)CC1` [Example 4, cis-Methyl 4-(2-benzamido-6-(hydroxymethyl)-1H-benzo[d]imidazol-1-yl)cyclohexanecarboxylate], less than 50 nM.
The result for `COC(=O)[C@H]1CC[C@@H](n2c(NC(=O)c3ccccc3)nc3ccc(CN4CCOCC4)cc32)CC1` [Example 5, cis-Methyl 4-(2-benzamido-6-(morpholinomethyl)-1H-benzo[d]imidazol-1-yl)cyclohexanecarboxylate] reads less than 50 nM.
The result for `CCOC(=O)[C@H]1CC[C@@H](n2c(NC(=O)c3ccc(F)cc3)nc3ccc(CO)cc32)CC1` [Example 6, cis-Ethyl 4-(2-(4-fluorobenzamido)-6-(hydroxymethyl)-1H-benzo[D]imidazol-1-yl)cyclohexanecarboxylate] reads less than 50 nM.
Molecule `CCOC(=O)[C@H]1CC[C@@H](n2/c(=N/C(=O)c3ccccc3)[nH]c3ccc(CO)cc32)CC1` [Example 7, cis-Ethyl 4-((E)-2-(benzoylimino)-6-(hydroxymethyl)-2,3-dihydro-1H-benzo[d]imidazol-1-yl)cyclohexanecarboxylate] returned an IC50 of less than 50 nM.
The result for `CCOC(=O)[C@H]1CC[C@@H](n2/c(=N/C(=O)c3ccc(F)cc3)[nH]c3ccc(CN4CCCCC4)cc32)CC1` [Example 8, cis-Ethyl 4-((E)-2-(4-fluorobenzoylimino)-6-(piperidin-1-ylmethyl)-2,3-dihydro-1H-benzo[d]imidazol-1-yl)cyclohexanecarboxylate] reads less than 50 nM.
Molecule `O=C(Nc1nc2ccc(CN3CCCCC3)cc2n1[C@H]1CC[C@@H](C(=O)O)CC1)c1ccc(F)cc1` [Example 10, cis-4-(2-(4-Fluorobenzamido)-6-(piperidin-1-ylmethyl)-1H-benzo[d]imidazol-1-yl)cyclohexanecarboxylic acid hydrochloride] showed a 50% inhibitory concentration (IC50) of 100 to 1000 nM.
The result for `CCNC(=O)[C@H]1CC[C@@H](n2/c(=N/C(=O)c3ccc(F)cc3)[nH]c3ccc(CN4CCCCC4)cc32)CC1` [Example 11, (E)-N-(1-(cis-4-(Ethylcarbamoyl)cyclohexyl)-6-(piperidin-1-ylmethyl)-1H-benzo[d]imidazol-2(3H)-ylidene)-4-fluorobenzamide] reads less than 50 nM; that for `COC(=O)[C@H]1CC[C@@H](n2/c(=N/C(=O)c3cccc(C(F)(F)F)c3)[nH]c3ccc(CO)cc32)CC1` [Example 12, cis-Methyl 4-((E)-6-(hydroxymethyl)-2-(3-(trifluoromethyl)benzoylimino)-2,3-dihydro-1H-benzo[d]imidazol-1-yl)cyclohexanecarboxyl], 100 to 1000 nM.
Consider `O=C(Nc1nc2ccc(CO)cc2n1C12CC3CC(CC(C3)C1)C2)c1ccccc1` [Example 13, N-(1-adamantyl-6-(hydroxymethyl)-1H-benzo[d]imidazol-2-yl)benzamide], for which the IC50 was 100 to 1000 nM.
With `COC(=O)[C@H]1CC[C@@H](n2c(NC(=O)c3cccc(C(F)(F)F)c3)nc3ccc(CN4CCCCC4)cc32)CC1` [Example 14, cis-Methyl 4-(6-(piperidin-1-ylmethyl)-2-(3-(trifluoromethyl)benzamido)-1H-benzo[d]imidazol-1-yl)cyclohexanecarboxylate], the 50% inhibitory concentration (IC50) is less than 50 nM.
Under `CNC(=O)[C@H]1CC[C@@H](n2/c(=N/C(=O)c3ccc(F)cc3)[nH]c3ccc(CN4CCCCC4)cc32)CC1` [Example 15, (E)-N-(1-(cis-4-(Methylcarbamoyl)cyclohexyl)-6-(piperidin-1-ylmethyl)-1H-benzo[d]imidazol-2(3H)-ylidene)-4-fluorobenzamide] stands less than 50 nM; under `O=C(/N=c1\[nH]c2ccc(CN3CCCCC3)cc2n1C12CC3CC(CC(C3)C1)C2)c1ccccc1` [Example 16], 50 to 100 nM.
Under `C=CCNS(=O)(=O)c1cccc(C(=O)/N=c2\[nH]c3ccc(CO)cc3n2C23CC4CC(CC(C4)C2)C3)c1` [Example 17, (E)-3-(N-Allylsulfamoyl)-N-(1-adamantyl-6-(hydroxymethyl)-1H-benzo[d]imidazol-2(3H)-ylidene)benzamide] stands less than 50 nM; under `C=CCNS(=O)(=O)c1cccc(C(=O)Nc2nc3ccc(CN4CCCCC4)cc3n2C23CC4CC(CC(C4)C2)C3)c1` [Example 18, 3-(N-Allylsulfamoyl)-N-(1-adamantyl-6-(piperidin-1-ylmethyl)-1H-benzo[d]imidazol-2-yl)benzamide], less than 50 nM.
In turn, `COC(=O)[C@H]1CC[C@@H](n2c(NC(=O)c3ccccc3)nc3ccc(CN4C(C)(C)CCCC4(C)C)cc32)CC1` [Example 19, cis-Methyl 4-(2-benzamido-6-((2,2,6,6-tetramethylpiperidin-1-yl)methyl)-1H-benzo[d]imidazol-1-yl)cyclohexanecarboxylate] gave a concentration for half-maximal inhibition (IC50) of less than 50 nM.
Under `COC(=O)[C@H]1CC[C@@H](n2/c(=N/C(=O)c3ccccc3)[nH]c3cnc(OCCN4CCCCC4)cc32)CC1` [Example 20, cis-Methyl 4-((E)-2-(benzoylimino)-6-(2-(piperidin-1-yl)ethoxy)-2,3-dihydro-1H-imidazo[4,5-c]pyridin-1-yl)cyclohexanecarboxylate] stands less than 50 nM; under `O=C(/N=c1\[nH]c2cnc(OCCN3CCCCC3)cc2n1[C@H]1CC[C@@H](C(=O)O)CC1)c1ccccc1` [Example 25, cis-4-((E)-2-(Benzoylimino)-6-(2-(piperidin-1-yl)ethoxy)-2,3-dihydro-1H-imidazo[4,5-c]pyridin-1-yl)cyclohexanecarboxylic acid], 1000 to 5000 nM; under `CCNC(=O)[C@H]1CC[C@@H](n2/c(=N/C(=O)c3ccccc3)[nH]c3cnc(OCCN4CCCCC4)cc32)CC1` [Example 26], less than 50 nM.
Under `C=CCNS(=O)(=O)c1cc(C(=O)Nc2nc3ccc(CO)cc3n2[C@H]2CC[C@@H](C(=O)OC)CC2)ccc1F` [Example 27, cis-Methyl 4-(2-(3-(N-allylsulfamoyl)-4-fluorobenzamido)-6-(hydroxymethyl)-1H-benzo[d]imidazol-1-yl)cyclohexanecarboxylate] stands 100 to 1000 nM.
Take `COCCCNS(=O)(=O)c1cc(C(=O)Nc2nc3ccc(CO)cc3n2[C@H]2CC[C@@H](C(=O)OC)CC2)ccc1F` [Example 28, cis-Methyl 4-(2-(4-fluoro-3-(N-(3-methoxypropyl)sulfamoyl)benzamido)-6-(hydroxymethyl)-1H-benzo[d]imidazol-1-yl)cyclohexanecarboxylate]: the IC50 was 100 to 1000 nM.
For the molecule `CC(C)(C)NC(=O)[C@H]1CC[C@@H](n2c(NC(=O)c3ccccc3)nc3ccc(CN4CCCCC4)cc32)CC1` [Example 29, N-(1-(cis-4-(tert-Butylcarbamoyl)cyclohexyl)-6-(piperidin-1-ylmethyl)-1H-benzo[d]imidazol-2-yl)benzamide], the concentration for half-maximal inhibition (IC50) was less than 50 nM.
Under `O=C(/N=c1\[nH]c2ccc(CN3CCCCC3)cc2n1[C@H]1CC[C@@H](C(=O)NC2CC2)CC1)c1ccc(F)cc1` [Example 31, (E)-N-(1-(cis-4-(Cyclopropylcarbamoyl)cyclohexyl)-6-(piperidin-1-ylmethyl)-1H-benzo[d]imidazol-2(3H)-ylidene)-4-fluorobenzamide] stands less than 50 nM; under `O=C(/N=c1\[nH]c2ccc(CN3CCCCC3)cc2n1[C@H]1CC[C@@H](C(=O)NCC2CC2)CC1)c1ccc(F)cc1` [Example 32, (E)-N-(1-(cis-4-(Cyclopropylmethylcarbamoyl)cyclohexyl)-6-(piperidin-1-ylmethyl)-1H-benzo[d]imidazol-2(3H)-ylidene)-4-fluorobenzamide], less than 50 nM; under `C=CCNS(=O)(=O)c1cc(C(=O)Nc2nc3ccc(CN4CCCCC4)cc3n2[C@H]2CC[C@@H](C(=O)OC)CC2)ccc1F` [Example 33, cis-Methyl 4-(2-(3-(N-allylsulfamoyl)-4-fluorobenzamido)-6-(piperidin-1-ylmethyl)-1H-benzo[d]imidazol-1-yl)cyclohexanecarboxylate], less than 50 nM.
The result for `C=CCNS(=O)(=O)c1cc(C(=O)Nc2nc3ccc(CN4CCCCC4)cc3n2[C@H]2CC[C@@H](C(=O)O)CC2)ccc1F` [Example 34, cis-4-(2-(3-(N-Allylsulfamoyl)-4-fluorobenzamido)-6-(piperidin-1-ylmethyl)-1H-benzo[d]imidazol-1-yl)cyclohexanecarboxylic acid] reads 100 to 1000 nM.
